These results are taken from a compilation of properties of binary mixtures (doi:10.1016/j.molliq.2022.119052).

Molecules are shown by their SMILES.

This data set in a line: xn = mol fraction of the nth substance listed. Particulars: 100 kPa, x1 = 0.333.

Broadly, the viscosity is the resistance of a fluid to flow. A low value points to a thin fluid. In the case of `CCn1cc[nH+]c1.[Cl-]` + OCC(O)CO, the viscosity by setting is: (298.15 K) 79.9 mPa·s; (313.15 K) 45.3 mPa·s; (323.15 K) 32 mPa·s; (333.15 K) 23 mPa·s.

As to `CC[n+]1ccn(C)c1.[Cl-]` + OCC(O)CO, the viscosity stood at 156.4 mPa·s (298.15 K), 85.1 mPa·s (313.15 K), 58.5 mPa·s (323.15 K) and 41.2 mPa·s (333.15 K).

In the case of `Cn1cc[nH+]c1.[Cl-]` + OCC(O)CO, the viscosity is, setting by setting: (303.15 K) 103.1 mPa·s; (323.15 K) 49.1 mPa·s.
